From ChEMBL document CHEMBL3751819, “Navigating into the chemical space between MGCD0103 and SAHA: novel histone deacetylase inhibitors as a promising lead” (Medchemcomm, 2015)

Columns and labels:
HepG2 [1] = assay: Antiproliferative activity against human HepG2 cells assessed as reduction in cell viability after 72 hrs by MTT assay; type: functional, cell-based; settings: HepG2, 72 h
HeLa [2] = assay: Induction of cell cycle arrest in human HeLa cells assessed as accumulation at G2/M phase at 0.5 uM after 24 hrs by propidium iodide staining based flow cytometry (reference value: 0.35 to 0.37%); type: functional
[3] = Antiproliferative activity against human HCT116 cells assessed as reduction in cell viability after 72 hrs by MTT assay; type: functional, cell-based; settings: HCT-116, 72 h
HeLa [4] = assay: Induction of apoptosis in human HeLa cells assessed as viable cells at 5 uM after 48 hrs by annexin-V-FITC/propidium iodide staining based flow cytometry (reference value: 88.6%); type: functional; settings: Homo sapiens, HeLa, 48 h; read-out: Activity
HeLa [5] = assay: Antiproliferative activity against human HeLa cells assessed as reduction in cell viability after 72 hrs by MTT assay; type: functional, cell-based
[6] = Half life in mouse microsomes; type: ADME, Microsome
HeLa [7] = assay: Induction of apoptosis in human HeLa cells assessed as late apoptotic cells at 1.25 uM after 48 hrs by annexin-V-FITC/propidium iodide staining based flow cytometry (reference value: 9.3%); type: functional
HeLa [8] = assay: Induction of apoptosis in human HeLa cells assessed as late apoptotic cells at 2.5 uM after 48 hrs by annexin-V-FITC/propidium iodide staining based flow cytometry (reference value: 9.3%); type: functional
HepG2 [9] = assay: Antiproliferative activity against human HepG2 cells assessed as reduction in cell viability after 48 hrs by MTT assay; type: functional, cell-based; settings: HepG2, 48 h
HeLa [10] = assay: Induction of apoptosis in human HeLa cells assessed as late apoptotic cells at 5 uM after 48 hrs by annexin-V-FITC/propidium iodide staining based flow cytometry (reference value: 9.3%); type: functional
MCF7 [11] = assay: Antiproliferative activity against human MCF7 cells assessed as reduction in cell viability after 72 hrs by MTT assay; type: functional, cell-based; settings: MCF7, 72 h
HeLa [12] = assay: Induction of apoptosis in human HeLa cells assessed as early apoptotic cells at 5 uM after 48 hrs by annexin-V-FITC/propidium iodide staining based flow cytometry (reference value: 1.4%); type: functional
HeLa [13] = assay: Antiproliferative activity against human HeLa cells assessed as reduction in cell viability after 48 hrs by MTT assay; type: functional, cell-based
HeLa [14] = assay: Induction of cell cycle arrest in human HeLa cells assessed as accumulation at S phase at 2 uM after 24 hrs by propidium iodide staining based flow cytometry (reference value: 0.12 to 0.13%); type: functional
MCF7 [15] = assay: Antiproliferative activity against human MCF7 cells assessed as reduction in cell viability after 24 hrs by MTT assay; type: functional, cell-based; settings: MCF7, 24 h
HeLa [16] = assay: Induction of apoptosis in human HeLa cells assessed as early apoptotic cells at 2.5 uM after 48 hrs by annexin-V-FITC/propidium iodide staining based flow cytometry (reference value: 1.4%); type: functional
HeLa [17] = assay: Antiproliferative activity against human HeLa cells assessed as reduction in cell viability after 24 hrs by MTT assay; type: functional, cell-based
HeLa [18] = assay: Induction of cell cycle arrest in human HeLa cells assessed as accumulation at G2/M phase at 2 uM after 24 hrs by propidium iodide staining based flow cytometry (reference value: 0.35 to 0.37%); type: functional
A549 [19] = assay: Antiproliferative activity against human A549 cells assessed as reduction in cell viability after 48 hrs by MTT assay; type: functional, cell-based; settings: A549, 48 h
[20] = Half life in mouse plasma; type: ADME, cell-free
HeLa [21] = assay: Induction of apoptosis in human HeLa cells assessed as necrotic cells at 5 uM after 48 hrs by annexin-V-FITC/propidium iodide staining based flow cytometry (reference value: 0.693%); type: functional
[22] = Antiproliferative activity against human HCT116 cells assessed as reduction in cell viability after 48 hrs by MTT assay; type: functional, cell-based; settings: HCT-116, 48 h
Histone deacetylase 2 = Histone deacetylase 2 (Homo sapiens, UniProt Q92769); assay: Inhibition of HDAC2 (unknown origin) using Boc-Lys(acetyl)-AMC as substrate preincubated for 5 mins followed by substrate addition by fluorescence assay
Sequence of Histone deacetylase 2 (Q92769 whole entry): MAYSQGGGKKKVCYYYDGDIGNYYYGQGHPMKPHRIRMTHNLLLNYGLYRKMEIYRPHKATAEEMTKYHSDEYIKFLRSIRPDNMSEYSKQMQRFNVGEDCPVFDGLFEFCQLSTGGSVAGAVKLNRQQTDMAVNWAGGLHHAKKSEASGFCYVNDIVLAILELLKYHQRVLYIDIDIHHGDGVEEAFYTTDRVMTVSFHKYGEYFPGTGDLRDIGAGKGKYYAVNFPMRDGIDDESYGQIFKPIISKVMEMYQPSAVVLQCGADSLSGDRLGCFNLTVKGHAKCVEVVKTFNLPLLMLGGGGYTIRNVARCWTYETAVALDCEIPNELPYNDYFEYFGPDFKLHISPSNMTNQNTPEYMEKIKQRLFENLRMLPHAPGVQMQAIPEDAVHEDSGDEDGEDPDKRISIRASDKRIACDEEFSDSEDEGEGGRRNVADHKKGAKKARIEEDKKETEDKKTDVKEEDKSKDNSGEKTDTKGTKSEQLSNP

HeLa [23] = assay: Induction of cell cycle arrest in human HeLa cells assessed as accumulation at G0/G1 phase at 1 uM after 24 hrs by propidium iodide staining based flow cytometry (reference value: 0.5 to 0.52%); type: functional
A549 [24] = assay: Antiproliferative activity against human A549 cells assessed as reduction in cell viability after 72 hrs by MTT assay; type: functional, cell-based; settings: for IC50: A549, 72 h
HeLa [25] = assay: Induction of apoptosis in human HeLa cells assessed as necrotic cells at 2.5 uM after 48 hrs by annexin-V-FITC/propidium iodide staining based flow cytometry (reference value: 0.693%); type: functional

## O=C(NO)c1ccc(CNc2nccc(-c3cccnc3)n2)cc1
HepG2 [1]
  IC50: 2.96 µM
HeLa [2]
  Activity: 0.31%
[3]
  IC50: 1.66 µM
HeLa [4]
  viability at 5 µM: 76.7%
HeLa [5]
  IC50: 3.17 µM
[6]
  half-life: 2.87 h
HeLa [7]
  Activity: 14.9%
HeLa [8]
  Activity: 11.9%
HepG2 [9]
  IC50: 4.03 µM
HeLa [10]
  Activity: 11.7%
MCF7 [11]
  IC50: 2.41 µM
HeLa [12]
  Activity: 11.1%
HeLa [13]
  IC50: 7.23 µM
HeLa [14]
  Activity: 0.03%
MCF7 [15]
  IC50: 46 µM
HeLa [16]
  Activity: 6.33%
HeLa [17]
  IC50: 30.7 µM
HeLa [18]
  Activity: 0.04%
A549 [19]
  IC50: 11.9 µM
[20]
  half-life: 12 h
HeLa [21]
  Activity: 0.536%
[22]
  IC50: < 0.88 µM
Histone deacetylase 2
  IC50: 0.134 µM
HeLa [23]
  Activity: 0.66%
A549 [24]
  Activity: Dose-dependent effect
  IC50: 4.64 µM
HeLa [25]
  Activity: 0.72%

## O=C(/C=C/c1ccc(CNc2nccc(-c3cccnc3)n2)cc1)NO
HepG2 [1]
  IC50: 6.52 µM
HeLa [2]
  Activity: 0.3%
[3]
  IC50: 1.05 µM
HeLa [4]
  viability at 5 µM: 76.5%
HeLa [5]
  IC50: 3.24 µM
[6]
  half-life: 2.5 h
HeLa [7]
  Activity: 12.2%
HeLa [8]
  Activity: 13.2%
HepG2 [9]
  IC50: 5.95 µM
HeLa [10]
  Activity: 12.4%
MCF7 [11]
  IC50: 2.66 µM
HeLa [12]
  Activity: 10.2%
HeLa [13]
  IC50: 3.79 µM
HeLa [14]
  Activity: 0.03%
MCF7 [15]
  IC50: 46 µM
HeLa [16]
  Activity: 6.59%
HeLa [17]
  IC50: 53.4 µM
HeLa [18]
  Activity: 0.09%
A549 [19]
  IC50: 8.32 µM
[20]
  half-life: 10 h
HeLa [21]
  Activity: 0.858%
[22]
  IC50: < 0.81 µM
Histone deacetylase 2
  IC50: 0.187 µM
HeLa [23]
  Activity: 0.64%
A549 [24]
  Activity: Dose-dependent effect
  IC50: 7.99 µM
HeLa [25]
  Activity: 0.603%
